# Target: T1, human DP2 receptor (Homo sapiens, UniProt Q9Y5Y4)
# T1 construct: expressed in transfected cells
# T1 sequence (Q9Y5Y4 1-395): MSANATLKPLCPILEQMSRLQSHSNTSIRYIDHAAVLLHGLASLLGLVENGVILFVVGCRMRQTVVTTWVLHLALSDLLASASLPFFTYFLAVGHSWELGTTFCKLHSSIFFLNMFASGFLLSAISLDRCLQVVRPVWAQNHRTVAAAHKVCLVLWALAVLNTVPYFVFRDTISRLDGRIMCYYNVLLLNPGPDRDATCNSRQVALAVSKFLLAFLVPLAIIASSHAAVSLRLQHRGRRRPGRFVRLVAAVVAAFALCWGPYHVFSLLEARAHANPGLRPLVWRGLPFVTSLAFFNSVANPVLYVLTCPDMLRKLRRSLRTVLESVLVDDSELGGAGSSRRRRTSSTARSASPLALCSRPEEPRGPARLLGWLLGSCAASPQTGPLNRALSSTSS
# Assay: DP2/CRTH2 radioligand binding assay ([3H]PGD2)
# Conditions: [3H]PGD2 binding, membranes of HEK293 cells expressing human DP2; read-out: hDP2
# Experimental: The ability of a compound to bind to the human DP2 receptor is assessed via a radioligand binding assay using [^3H]PGD2. HEK293 cells stably expressing recombinant human DP2 are resuspended in 10 mM Hepes, 7.4 containing 1 mM DTT, lysed and centrifuged at 75,000×g to pellet the membranes. The membranes are resuspended in 10 mM Hepes, 7.4 containing 1 mM DTT and 10% glycerol to approximately 5 mg protein/ml. Membranes (2-10 μg protein/well) are incubated in 96-well plates with 1 nM [^3H]PGD2 and test compound in Assay Buffer (50 mM Hepes, 10 mM MnCl2, 1 mM EDTA, plus or minus 0.2% human serum albumin, pH 7.4) for 60 minutes at room temperature. The reactions are terminated by rapid filtration through Whatman GF/C glass fibre filter plates. The filter plates were pre-soaked in 0.33% polyethylenimine for 30 minutes at room temperature then washed in Wash Buffer (50 mM Hepes, 0.5 M NaCl pH 7.4) prior to harvesting. After harvesting, the filter plates are washed 3 times with 1 ml cold Wash Buffer then dried. Scintillant is then added to the plates and the radioactivity retained on the filters is determined on a Packard TopCount (Perkin Elmer). Specific binding is determined as total radioactive binding minus non-specific binding in the presence of 10 μM PGD2. IC50s were determined using GraphPad prism analysis of drug titration curves.
row,SMILES,IC50 [nM]
1,"CCN(Cc1ccc(OC)cc1-c1cc(Cl)cc(CC(=O)O)c1)C(=O)C1CC1 [Compound 1-218, {5-Chloro-2′-[(cyclopropanecarbonyl-ethyl-amino)-methyl]-5′-methoxy-biphenyl-3-yl}-acetic acid]",< 300
2,"CCN(Cc1cc(SC)ccc1-c1cc(Cl)cc(CC(=O)O)c1)C(=O)C1CC1 [Compound 1-242, {5-Chloro-2′-[(cyclopropanecarbonyl-ethyl-amino)-methyl]-4′-methylsulfanyl-biphenyl-3-yl}-acetic acid]",< 300
3,"CCN(Cc1cc(C(F)(F)F)ccc1-c1cc([C@@H](C)C(=O)O)cc(C(F)(F)F)c1)C(=O)NCc1ccccc1 [Compound 1-239, (R)-2-[2′-(3-Benzyl-1-ethyl-ureidomethyl)-5,4′-bis-trifluoromethyl-biphenyl-3-yl]-propionic acid]",< 300
4,"CCN(Cc1cc(C(F)(F)F)ccc1-c1cc(CC(=O)O)ccc1OC)C(=O)c1ccccc1 [Compound 1-80, {2′-[(Benzoyl-ethyl-amino)-methyl]-6-methoxy-4′-trifluoromethyl-biphenyl-3-yl}-acetic acid]",< 300
5,"CCN(Cc1ccc(OC)cc1-c1cc(CC(=O)O)ccc1OC)C(=O)C1CC1 [Compound 1-196, {2′-[(Cyclopropanecarbonyl-ethyl-amino)-methyl]-6,5′-dimethoxy-biphenyl-3-yl}-acetic acid]",< 300
6,"CCN(Cc1cc(C(F)(F)F)ccc1-c1cc([C@H](C)C(=O)O)cc(C(F)(F)F)c1)C(=O)NCc1ccccc1 [Compound 1-240, (S)-2-[2′-(3-Benzyl-1-ethyl-ureidomethyl)-5,4′-bis-trifluoromethyl-biphenyl-3-yl]-propionic acid]",< 300
7,"CCN(Cc1cc(C(F)(F)F)ccc1-c1cc(Cl)cc(CC(=O)O)c1)C(=O)c1ccccc1 [Compound 1-203, {2′-[(Benzoyl-ethyl-amino)-methyl]-5-chloro-4′-trifluoromethyl-biphenyl-3-yl}-acetic acid]",< 300
8,"CCN(Cc1cc(C(F)(F)F)ccc1-c1cc([C@H](C)C(=O)O)cc(C(F)(F)F)c1)C(=O)C1CC1 [Compound 1-238, (S)-2-{2′-[(Cyclopropanecarbonyl-ethyl-amino)-methyl]-5,4′-bis-trifluoromethyl-biphenyl-3-yl}-propionic acid]",< 300
9,"CCOc1ccc(-c2ccc(-c3cc(CC(=O)O)ccc3OC)c(CN(CC)C(=O)Cc3ccccc3)c2)cn1 [Compound 1-255, {4′-(6-Ethoxy-pyridin-3-yl)-2′-[(ethyl-phenylacetyl-amino)-methyl]-6-methoxy-biphenyl-3-yl}-acetic acid]",< 300
10,"CCN(Cc1cc(C(F)(F)F)ccc1-c1cc([C@H](C)C(=O)N2C(=O)O[C@@H](c3ccccc3)[C@H]2C)ccc1OC)C(=O)C1CC1 [Compound 2-13, Cyclopropanecarboxylic acid ethyl-{2′-methoxy-5′-[(S)-1-methyl-2-((4R,5S)-4-methyl-2-oxo-5-phenyl-oxazolidin-3-yl)-2-oxo-ethyl]-4-trifluoromethyl-biphenyl-2-ylmethyl}-amide]",1000 to 30000
11,"CCN(Cc1cc(C(F)(F)F)ccc1-c1cc(C(F)(F)F)cc(C(C)(C)C(=O)O)c1)C(=O)C1CC1 [Compound 1-236, 2-{2′-[(Cyclopropanecarbonyl-ethyl-amino)-methyl]-5,4′-bis-trifluoromethyl-biphenyl-3-yl}-2-methyl-propionic acid]",300 to 1000
12,"CCOc1ccc(-c2ccc(-c3cc(CC(=O)O)ccc3OC)c(CN(CC)C(=O)c3ccccc3)c2)cn1 [Compound 1-254, [2′-[(Benzoyl-ethyl-amino)-methyl]-4′-(6-ethoxy-pyridin-3-yl)-6-methoxy-biphenyl-3-yl]-acetic acid]",< 300
13,"CCN(Cc1cc(C(F)(F)F)ccc1-c1cc(C(C)C(=O)O)cc(C(F)(F)F)c1)C(C)=O (stereo not shown) [Compound 1-213, 2-{2′-[(Acetyl-ethyl-amino)-methyl]-5,4′-bis-trifluoromethyl-biphenyl-3-yl}-propionic acid]",< 300
14,"CCN(Cc1cc(C(F)(F)F)ccc1-c1cc(Cl)cc(C(C)C(=O)O)c1)C(=O)NCc1ccccc1 (stereo not shown) [Compound 1-223, 2-[2′-(3-Benzyl-1-ethyl-ureidomethyl)-5-chloro-4′-trifluoromethyl-biphenyl-3-yl]-propionic acid]",< 300
15,"CCN(Cc1cc(C(F)(F)F)ccc1-c1cc(CC(=O)O)ccc1OC)C(=O)NCc1ccc(Cl)nc1 [Compound 1-200, {2′-[3-(6-Chloro-pyridin-3-ylmethyl)-1-ethyl-ureidomethyl]-6-methoxy-4′-trifluoromethyl-biphenyl-3-yl}-acetic acid]",< 300
16,"CCN(Cc1cc(C(F)(F)F)ccc1-c1cc(Cl)cc(CC(=O)O)c1)C(=O)NC [Compound 1-201, [5-Chloro-2′-(1-ethyl-3-methyl-ureidomethyl)-4′-trifluoromethyl-biphenyl-3-yl]-acetic acid]",< 300
17,"CCN(Cc1cc(-c2ccc3ncccc3c2)ccc1-c1cc(CC(=O)O)ccc1OC)C(=O)NCc1ccccc1 [Compound 1-231, [2′-(3-Benzyl-1-ethyl-ureidomethyl)-6-methoxy-4′-quinolin-6-yl-biphenyl-3-yl]-acetic acid]",< 300
18,"CCN(Cc1cc(-c2ccc(F)cn2)ccc1-c1cc(CC(=O)O)ccc1OC)C(=O)C1CC1 [Compound 1-249, [2′-[(Cyclopropanecarbonyl-ethyl-amino)-methyl]-4′-(5-fluoro-pyridin-2-yl)-6-methoxy-biphenyl-3-yl]-acetic acid]",< 300
19,"CCN(Cc1ccc(OC)cc1-c1cc(CC(=O)O)ccc1OC)C(=O)OCc1ccc(F)cc1 [Compound 1-194, (2′-{[Ethyl-(4-fluoro-benzyloxycarbonyl)-amino]-methyl}-6,5′-dimethoxy-biphenyl-3-yl)-acetic acid]",< 300
20,"CCN(Cc1cc(C(F)(F)F)ccc1-c1cc(CC(=O)O)ccc1OC)C(=O)C1(O)CC1 [Compound 1-209, (2′-{[Ethyl-(1-hydroxy-cyclopropanecarbonyl)-amino]-methyl}-6-methoxy-4′-trifluoromethyl-biphenyl-3-yl)-acetic acid]",< 300
21,"CCN(Cc1ccc(OC)cc1-c1cc(CC(=O)O)ccc1OC)C(=O)OCc1ccc(Cl)cc1 [Compound 1-195, (2′-{[(4-Chloro-benzyloxycarbonyl)-ethyl-amino]-methyl}-6,5′-dimethoxy-biphenyl-3-yl)-acetic acid]",< 300
22,"CCN(Cc1cc(C(F)(F)F)ccc1-c1cc(CC(=O)O)cc(C(F)(F)F)c1)C(=O)OCc1ccc(Cl)cc1 [Compound 1-189, (2′-{[(4-Chloro-benzyloxycarbonyl)-ethyl-amino]-methyl}-5,4′-bis-trifluoromethyl-biphenyl-3-yl)-acetic acid]",< 300
23,"CCN(Cc1cc(C(F)(F)F)ccc1-c1cc(Cl)cc(CC(=O)O)c1)C(=O)OCc1ccc(Cl)cc1 [Compound 1-188, (5-Chloro-2′-{[(4-chloro-benzyloxycarbonyl)-ethyl-amino]-methyl}-4′-trifluoromethyl-biphenyl-3-yl)-acetic acid]",< 300
24,"CCN(Cc1cc(C(F)(F)F)ccc1-c1cc(CC(=O)O[C@@H]2O[C@H](C(=O)O)[C@@H](O)[C@H](O)[C@H]2O)ccc1OC)C(=O)NCc1ccccc1 [Compound 2-17, (2S,3S,4S,5R,6S)-6-{2-[2′-(3-Benzyl-1-ethyl-ureidomethyl)-6-methoxy-4′-trifluoromethyl-biphenyl-3-yl]-acetoxy}-3,4,5-trihydroxy-tetrahydro-pyran-2-carboxylic acid]",300 to 1000
25,"CCOc1ccc(-c2ccc(-c3cc(CC(=O)O)ccc3OC)c(CN(CC)C(=O)COc3ccc(Cl)cc3)c2)cn1 [Compound 1-229, [2′-({[2-(4-Chloro-phenoxy)-acetyl]-ethyl-amino}-methyl)-4′-(6-ethoxy-pyridin-3-yl)-6-methoxy-biphenyl-3-yl]-acetic acid]",< 300
26,"CCN(Cc1cc(C(F)(F)F)ccc1-c1cc([C@@H](C)C(=O)N[C@H](C)Cc2ccccc2)cc(C(F)(F)F)c1)C(=O)NCc1ccccc1 [Compound 2-10, (R)-2-[2′-(3-Benzyl-1-ethyl-ureidomethyl)-5,4′-bis-trifluoromethyl-biphenyl-3-yl]-N—((R)-1-methyl-2-phenyl-ethyl)-propionamide]",> 30000
27,"CCN(Cc1cc(-c2ccc3ncccc3c2)ccc1-c1cc(CC(=O)O)ccc1OC)C(=O)C1CC1 [Compound 1-230, {2′-[(Cyclopropanecarbonyl-ethyl-amino)-methyl]-6-methoxy-4′-quinolin-6-yl-biphenyl-3-yl}-acetic acid]",< 300
28,"CCN(Cc1cc(C(F)(F)F)ccc1-c1cc(C(C)C(=O)O)ccc1OC)C(=O)C1CC1 (stereo not shown) [Compound 1-217, 2-{2′-[(Cyclopropanecarbonyl-ethyl-amino)-methyl]-6-methoxy-4′-trifluoromethyl-biphenyl-3-yl}-propionic acid]",< 300

# From patent US8067445B2, “N,N-disubstituted aminoalkylbiphenyl antagonists of prostaglandin D2 receptors” (Panmira Pharmaceuticals, LLC, priority 2008, dated 2011)
